Experimental data as given in patent US9293713B2, “Arylamine compound” (RICOH COMPANY, LTD., priority 2012, dated 2016).

Tests used:
[1] = Preparation of ink (evaluation of solubility): degree of solubility from saturated solution; type: physicochemical; details: for degree of solubility, 1,2,3,4-Tetrahydronaphthalene: solvent 1,2,3,4-tetrahydronaphthalene (Tetralin); for degree of solubility, 2-Propanol: solvent 2-propanol; for degree of solubility, ethyl benzoate: solvent ethyl benzoate; for degree of solubility, Toluene: solvent toluene
Experimental: HTL17 was added to each of toluene, chloroform, 2-propanol, 1,2,3,4-tetrahydronaphthalene (Tetralin®), ethyl benzoate (100 mL respectively), until undissolved compound was observed. The mixture was stirred for 10 minute with refluxing the solvent. Then, mixture was cooled to ambient temperature, and stirred for 1 hour, followed by still standing for 16 hours. The supernatant was filtrated by PTFE filter having thickness of 0.2 μm to obtain saturated solution. The saturated solution was dried under reduced pressure to calculate degree of solubility for each solvent.
Evaluation criteria in Table 4 was described below.

[2] = Pyrolysis behavior observed by TG-DTA; type: physicochemical; details: for difference of mass reduced between theoretical value and actual measured value: heating
Experimental: HTL17 synthesized in Example 1 was heated at a range of 25° C. to 450° C. at a temperature increasing rate of 5° C./min and the pyrolysis behavior thereof was observed by TG-DTA [reference: Al2O3, under nitrogen flow (200 mL/min), EXSTAR6000 (product name), product of Seiko Instruments Inc.].
The results are shown in FIG. 2, where the horizontal axis indicates temperature [° C.], the left-hand vertical axis indicates change in mass [mg] and the right-hand vertical axis indicates DTA signal [μV].

[3] = saturated solution at ambient temperature

| Compound | mass reduction ([2]; from ambient temperature to 250° C., 5° C./min, nitrogen flow) [%] | difference of mass reduced between theoretical value and actual measured value [2] [%] | difference of mass reduced between theoretical value and actual measured value ([2]; prophetic example) [%] | degree of solubility, 1,2,3,4-Tetrahydronaphthalene [1, 3] | degree of solubility, 2-Propanol [1, 3] | degree of solubility, ethyl benzoate [1, 3] | degree of solubility, Toluene [1, 3] | degree of solubility, 1,2,3,4-Tetrahydronaphthalene ([1]; prophetic example) | degree of solubility, 2-Propanol ([1]; prophetic example) | degree of solubility, ethyl benzoate ([1]; prophetic example) | degree of solubility, Toluene ([1]; prophetic example) |
| --- | --- | --- | --- | --- | --- | --- | --- | --- | --- | --- | --- |
| c1ccc2c(c1)-c1ccccc1C2(c1ccc(N(c2ccc3ccccc3c2)c2ccc3ccccc3c2)cc1)c1ccc(N(c2ccc3ccccc3c2)c2ccc3ccccc3c2)cc1 [NPAPF, 9,9-bis[4-(N,N-bis-naphthalene-2-yl-amino)phenyl]-9H-florene, reference compound] | – | – | – | B (The degree of solubility is not less than 1% by mass but less than 5% by mass.) | C (The degree of solubility is less than 1% by mass) | C (The degree of solubility is less than 1% by mass) | B (The degree of solubility is not less than 1% by mass but less than 5% by mass.) | – | – | – | – |
| c1ccc(-c2ccc(N(c3ccc(-c4ccccc4)cc3)c3ccc(-c4ccc(N(c5ccc(-c6ccccc6)cc5)c5ccc(-c6ccccc6)cc5)cc4)cc3)cc2)cc1 [TBPB, N,N,N′,N′-tetra-biphenyl-4-yl-benzidine, reference compound] | – | – | – | – | – | – | – | B (The degree of solubility is not less than 1% by mass but less than 5% by mass.) | C (The degree of solubility is less than 1% by mass) | B (The degree of solubility is not less than 1% by mass but less than 5% by mass.) | A (The degree of solubility is not less than 5% by mass) |
| c1ccc2cc(N(c3ccc(-c4ccc(N(c5ccc6ccccc6c5)c5cccc6ccccc56)cc4)cc3)c3cccc4ccccc34)ccc2c1 [α,β-TNB, 4,4′-bis[N-(1-naphthyl)-N-(2-naphthyl)amino]biphenyl, reference compound] | – | – | – | A (The degree of solubility is not less than 5% by mass) | C (The degree of solubility is less than 1% by mass) | B (The degree of solubility is not less than 1% by mass but less than 5% by mass.) | A (The degree of solubility is not less than 5% by mass) | – | – | – | – |
| c1ccc2cc(N(c3ccc(-c4ccc(N(c5ccc6ccccc6c5)c5cccc6ccccc56)cc4)cc3)c3cccc4ccccc34)ccc2c1 [α-TNB, 4,4′-tetrakis[N-(1-naphthyl)-N-(2-naphthyl)amino]biphenyl, reference compound] | – | – | – | – | – | – | – | B (The degree of solubility is not less than 1% by mass but less than 5% by mass.) | C (The degree of solubility is less than 1% by mass) | B (The degree of solubility is not less than 1% by mass but less than 5% by mass.) | A (The degree of solubility is not less than 5% by mass) |

More lines, main results first:

| mass reduction ([2]; from ambient temperature to 250° C., 5° C./min, nitrogen flow) [%] | difference of mass reduced between theoretical value and actual measured value [2] [%] | difference of mass reduced between theoretical value and actual measured value ([2]; prophetic example) [%] | Compound | degree of solubility, 1,2,3,4-Tetrahydronaphthalene [1, 3] | degree of solubility, 2-Propanol [1, 3] | degree of solubility, ethyl benzoate [1, 3] | degree of solubility, Toluene [1, 3] | degree of solubility, 1,2,3,4-Tetrahydronaphthalene ([1]; prophetic example) | degree of solubility, 2-Propanol ([1]; prophetic example) | degree of solubility, ethyl benzoate ([1]; prophetic example) | degree of solubility, Toluene ([1]; prophetic example) |
| --- | --- | --- | --- | --- | --- | --- | --- | --- | --- | --- | --- |
| 40.0 | – | – | CCCCCC(=O)OC1CCC(OC(=O)CCCCC)c2cc(N(c3ccc(-c4ccc(N(c5ccc6c(c5)C(OC(=O)CCCCC)CCC6OC(=O)CCCCC)c5ccc6ccccc6c5)cc4)cc3)c3ccc4ccccc4c3)ccc21 (stereo not drawn) [HTL17] | A (The degree of solubility is not less than 5% by mass) | A (The degree of solubility is not less than 5% by mass) | A (The degree of solubility is not less than 5% by mass) | A (The degree of solubility is not less than 5% by mass) | – | – | – | – |
| – | −0.12 | – | CCCCCC(=O)OC1CCC(OC(=O)CCCCC)c2cc(N(c3ccc(-c4ccc(N(c5ccc6c(c5)C(OC(=O)CCCCC)CCC6OC(=O)CCCCC)c5cccc6ccccc56)cc4)cc3)c3cccc4ccccc34)ccc21 (stereo not drawn) [HTL18] | A (The degree of solubility is not less than 5% by mass) | A (The degree of solubility is not less than 5% by mass) | A (The degree of solubility is not less than 5% by mass) | A (The degree of solubility is not less than 5% by mass) | – | – | – | – |
| – | −0.16 | – | CCCCCC(=O)OC1CCC(OC(=O)CCCCC)c2cc(N(c3ccc(C4(c5ccc(N(c6ccc7c(c6)C(OC(=O)CCCCC)CCC7OC(=O)CCCCC)c6ccc7ccccc7c6)cc5)c5ccccc5-c5ccccc54)cc3)c3ccc4ccccc4c3)ccc21 (stereo not drawn) [HTL33] | A (The degree of solubility is not less than 5% by mass) | B (The degree of solubility is not less than 1% by mass but less than 5% by mass.) | A (The degree of solubility is not less than 5% by mass) | A (The degree of solubility is not less than 5% by mass) | – | – | – | – |
| – | – | −0.18 | CCCCCC(=O)OC1C=C(c2ccc(N(c3ccc(C4=CC(OC(=O)CCCCC)CCC4OC(=O)CCCCC)cc3)c3ccc(-c4ccc(N(c5ccc(C6=CC(OC(=O)CCCCC)CCC6OC(=O)CCCCC)cc5)c5ccc(C6=CC(OC(=O)CCCCC)CCC6OC(=O)CCCCC)cc5)cc4)cc3)cc2)C(OC(=O)CCCCC)CC1 (stereo not drawn) [HTL34] | – | – | – | – | A (The degree of solubility is not less than 5% by mass) | B (The degree of solubility is not less than 1% by mass but less than 5% by mass.) | A (The degree of solubility is not less than 5% by mass) | A (The degree of solubility is not less than 5% by mass) |
